Publication PMC12543186, “Discovery of C-12 dithiocarbamate andrographolide analogue as a novel antioxidant and α-glucosidase inhibitors: In vitro and in silico studies” (PLOS One, 2025)
Read-outs that look alike come from different tables or passages of the source.

Tests used:
[1] = Ferric reducing antioxidant power (FRAP) activity; conditions: 500 μM; third replicate column
Method: The FRAP activity assay was performed to assess the reducing power ability to reduce ferric ions (Fe^3+) to ferrous ions (Fe^2+), following the established method described by Sekhon-Loodu and Rupasinghe. The FRAP reagent was freshly prepared by combining 300 mM acetate buffer pH 3.6, 10 mM 2,4,6- Tri(2-pyridyl)-s-triazine (TPTZ) dissolved in 40 mM HCl, and 20 mM FeCl3 in a ratio of 10:1:1. Ferrous sulfate (FeSO4) was used as a standard, with ascorbic acid serving as a control. The assay was conducted in a 96-well plate by mixing 20 μL of the sample, standard, or positive control with 80 μL of the FRAP solution. The mixture was then incubated for 20 minutes at room temperature, after which we measured absorbance at 595 nm using a microplate reader. The results were expressed as FRAP value, reported as ascorbic acid equivalent in μM (AAE, μM), providing a definitive measure of reducing power.

[2] = DPPH radical scavenging activity; conditions: 500 μM
Method: The DPPH radical scavenging activity was conducted to thoroughly evaluate the antioxidant potential of andrographolide and its analogues. We modified the assay employing the Sekhon-Loodu and Rupasinghe methods. A DPPH solution was prepared in absolute ethanol, with a concentration of 200 μM. Next, 100 μL of DPPH solution was mixed with 100 μL of the sample in a 96-well plate. The mixture was then incubated for 30 minutes at room temperature. Following incubation, we measured the absorbance at 517 nm using a microplate reader. We tested the antioxidant properties of the compounds at a concentration of 500 μM to detect the weak-to-moderate antioxidants while addressing solubility limitations and minimizing assay artefacts, consistent with previous research. The DPPH radical scavenging activity was precisely expressed as a percentage of DPPH inhibition (% DPPH Inhibition). We selected candidates based on their higher inhibitory activity and prepared various concentrations of these candidates for testing. α-tocopherol, also known as vitamin E, was employed as a positive control. The % DPPH Inhibition was calculated as follows:
%DPPH Inhibition=(1–{A/B})×100
Where A was the absorbance of the DPPH with sample, and B was the absorbance of the DPPH with vehicle (blank).

[3] = molecular target: T1, α-glucosidase from Saccharomyces cerevisiae (Saccharomyces cerevisiae, UniProt P38158); assay: α-glucosidase inhibition activity (p-NPG substrate); type: biochemical
Method: An in vitro α-glucosidase inhibitory assay is commonly used to evaluate the inhibitory effects of various compounds on the enzyme α-glucosidase, which is involved in carbohydrate digestion. Inhibiting this enzyme results in slower glucose absorption, which can be beneficial for managing postprandial blood sugar levels in diabetic conditions. This assay was modified from the methods described by Yusuf et al.. The procedure involved mixing 25 μL of the sample, 150 μL of phosphate buffer saline (PBS) pH 7.4, and 75 μL of 10 mM p-NPG. The mixture was incubated at 37 °C for 10 min. Next, 50 μL of α-glucosidase enzyme from Saccharomyces cerevisiae at a concentration of 0.1 U/mL was added, then incubated at 37 °C for 10 min. To terminate the reaction, […] of 0.1 M sodium carbonate (Na2CO3) was added to the mixture. The absorbance was measured using a microplate reader. The percentage of α-glucosidase inhibition was calculated as follows:
α−glucosidase inhibition(%)=(1–{A−B/C−D})×100
Where A was the absorbance of the sample with α-glucosidase enzyme, B was the absorbance of the sample, C was the absorbance of vehicle with α-glucosidase enzyme, and D was the absorbance of the vehicle (blank).

[4] = molecular target: T1, α-glucosidase from Saccharomyces cerevisiae; assay: Surface plasmon resonance, steady-state affinity; type: binding; conditions: SPR steady-state affinity model, 25 °C, immobilized yeast α-glucosidase; read-out: dissociation constant (KD)
Method: All experiments were conducted using a Biacore X100 instrument at 25 °C with a running buffer of 1X PBS-P+ (10 mM phosphate buffer pH 7.4, 2.7 mM KCl, 137 mM NaCl, 0.05% Tween 20) supplemented with 5% DMSO. Compounds were initially dissolved in DMSO to a final concentration of 14 mM. The stock solution was then diluted to 700 μM in 1.05X PBS-P+ to prepare a compound solution containing 1X PBS-P+ with 5% DMSO. This compound solution was utilized to prepare the required concentrations for injections into the Biacore system. α-glucosidase from Saccharomyces cerevisiae was immobilized onto a CM5 chip following standard amine coupling procedures: the CM5 chip, containing channel 1 and 2, was activated with an injection of NHS/EDC mixture with a contact time of 540 s at a flow rate of 10 µL/min. This was followed by multiple injections of α-glucosidase dissolved in 10 mM sodium acetate pH 4.0 (50 µg/mL) onto channel 2, also with a contact time of 540 s at a flow rate of 10 µL/min. Both channels were inactivated by an injection of 1M ethanolamine at a flow rate of 10 µL/min for 540 s. An immobilization level of 3300 RU of α-glucosidase was achieved.
Multi-cycle affinity studies were conducted with a 100 s association phase and a 60 s dissociation phase, using a flow rate of 30 µL/min. Compounds were injected onto the chip at increasing concentrations of 7, 21, 70, 210, and 490 μM. Binding measurements were taken after reference subtraction of channel 1 (no immobilized α-glucosidase) and after subtracting the results from a blank injection with zero analyte concentration. All data evaluation was performed with Biacore X100 evaluation software (version 2.0).

T1 sequence (P38158 whole entry): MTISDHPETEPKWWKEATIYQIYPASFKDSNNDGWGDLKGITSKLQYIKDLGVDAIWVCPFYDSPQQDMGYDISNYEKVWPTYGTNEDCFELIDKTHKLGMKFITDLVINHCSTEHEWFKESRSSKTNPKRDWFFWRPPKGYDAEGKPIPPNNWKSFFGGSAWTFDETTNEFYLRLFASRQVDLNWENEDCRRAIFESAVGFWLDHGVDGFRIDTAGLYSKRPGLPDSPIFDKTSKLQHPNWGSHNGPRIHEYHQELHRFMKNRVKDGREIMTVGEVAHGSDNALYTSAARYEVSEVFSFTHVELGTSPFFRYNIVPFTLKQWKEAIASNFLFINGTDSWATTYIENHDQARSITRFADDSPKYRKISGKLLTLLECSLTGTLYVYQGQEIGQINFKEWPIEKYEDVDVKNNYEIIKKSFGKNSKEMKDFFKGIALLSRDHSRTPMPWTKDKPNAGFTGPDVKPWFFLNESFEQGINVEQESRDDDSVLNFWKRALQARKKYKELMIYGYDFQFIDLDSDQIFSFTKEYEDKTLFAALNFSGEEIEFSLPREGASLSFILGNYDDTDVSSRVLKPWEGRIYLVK

SMILES: C=C1CC[C@@H]2[C@](C)(CO)[C@H](O)CC[C@@]2(C)[C@@H]1C/C=C1/C(=O)OC[C@H]1O [Andrographolide]
- FRAP, Ascorbic acid equivalent, replicate 3 [1]: -2.0327 AAE, μM
- % Inhibition (DPPH), replicate 1 ([2]; first replicate column): 17.9296%
- % DPPH Inhibition, Mean ([2]; mean of n = 3): 14.4808%
- % Inhibition (DPPH), replicate 2 ([2]; second replicate column): 11.6610%
- % Inhibition (DPPH), replicate 3 ([2]; third replicate column): 13.8517%
- α-glucosidase inhibition (%), Mean ([3]; 2000 μM): 21.1432%
- IC50 ([3]; concentration range up to 2000 μM, read-out: IC50 (α-glucosidase inhibitory activity)): > 2000 µM
- inhibition at 31.2 µM ([3]; read-out: α-glucosidase inhibition (%), Mean, 31.2 μM): 0.0652%
- inhibition at 62.5 µM ([3]; read-out: α-glucosidase inhibition (%), Mean, 62.5 μM): -0.749%
- inhibition at 125 µM ([3]; read-out: α-glucosidase inhibition (%), Mean, 125 μM): 4.88%
- inhibition at 250 µM ([3]; read-out: α-glucosidase inhibition (%), Mean, 250 μM): 1.93%
- inhibition at 500 µM ([3]; read-out: α-glucosidase inhibition (%), Mean, 500 μM): 11.9%
- inhibition at 1000 µM ([3]; read-out: α-glucosidase inhibition (%), Mean, 1000 μM): 13.6%
- inhibition at 2000 µM ([3]; read-out: α-glucosidase inhibition (%), Mean, 2000 μM): 21.1%
- inhibition at 31.2 µM ([3]; read-out: α-glucosidase inhibition (%), replicate 1, 31.2 μM, first replicate column): -0.3%
- inhibition at 62.5 µM ([3]; read-out: α-glucosidase inhibition (%), replicate 1, 62.5 μM, first replicate column): 2.19%
- inhibition at 125 µM ([3]; read-out: α-glucosidase inhibition (%), replicate 1, 125 μM, first replicate column): 6.76%
- inhibition at 250 µM ([3]; read-out: α-glucosidase inhibition (%), replicate 1, 250 μM, first replicate column): -2.97%
- inhibition at 500 µM ([3]; read-out: α-glucosidase inhibition (%), replicate 1, 500 μM, first replicate column): 13.1%
- inhibition at 1000 µM ([3]; read-out: α-glucosidase inhibition (%), replicate 1, 1000 μM, first replicate column): 17.1%
- inhibition at 2000 µM ([3]; read-out: α-glucosidase inhibition (%), replicate 1, 2000 μM, first replicate column): 22.5%
- inhibition at 31.2 µM ([3]; read-out: α-glucosidase inhibition (%), replicate 2, 31.2 μM, second replicate column): 1.47%
- inhibition at 62.5 µM ([3]; read-out: α-glucosidase inhibition (%), replicate 2, 62.5 μM, second replicate column): 3.06%
- inhibition at 125 µM ([3]; read-out: α-glucosidase inhibition (%), replicate 2, 125 μM, second replicate column): 3.19%
- inhibition at 250 µM ([3]; read-out: α-glucosidase inhibition (%), replicate 2, 250 μM, second replicate column): 3.6%
- inhibition at 500 µM ([3]; read-out: α-glucosidase inhibition (%), replicate 2, 500 μM, second replicate column): 12%
- inhibition at 1000 µM ([3]; read-out: α-glucosidase inhibition (%), replicate 2, 1000 μM, second replicate column): 13.5%
- inhibition at 2000 µM ([3]; read-out: α-glucosidase inhibition (%), replicate 2, 2000 μM, second replicate column): 21%
- inhibition at 31.2 µM ([3]; read-out: α-glucosidase inhibition (%), replicate 3, 31.2 μM, third replicate column): -0.976%
- inhibition at 62.5 µM ([3]; read-out: α-glucosidase inhibition (%), replicate 3, 62.5 μM, third replicate column): -7.49%
- inhibition at 125 µM ([3]; read-out: α-glucosidase inhibition (%), replicate 3, 125 μM, third replicate column): 5.68%
- inhibition at 250 µM ([3]; read-out: α-glucosidase inhibition (%), replicate 3, 250 μM, third replicate column): 5.16%
- inhibition at 500 µM ([3]; read-out: α-glucosidase inhibition (%), replicate 3, 500 μM, third replicate column): 10.6%
- inhibition at 1000 µM ([3]; read-out: α-glucosidase inhibition (%), replicate 3, 1000 μM, third replicate column): 11%
- inhibition at 2000 µM ([3]; read-out: α-glucosidase inhibition (%), replicate 3, 2000 μM, third replicate column): 19.9%
- Kd [4]: 137 ± 85.1 µM
